This passage reports IC50 results from US20240294551A1 (AMGEN INC., priority 2022, published 2024).

Assay [1] concerns the target His-tagged KRAS G12D protein (Homo sapiens (Human), UniProt P01116, G12D). Nature of the assay: KRAS G12D TR-FRET Assay. It is filed as binding. The essentials: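 Each incubation ran at room temperature: enzyme with compound for 30 minutes, peptide for one hour, and detection reagents (0.4 nM europium anti-6×His, 5 nM streptavidin-d2) for one hour more. Protein and peptide stocks were each diluted to 20 nM before addition.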

Assay [2] has as its target GDP-bound KRAS protein (aa 1-169), containing both G12D and C118A amino acid substitutions (Homo sapiens (Human), UniProt P01116, C118A/G12D). Nature of the assay: KRAS G12D Coupled Nucleotide Exchange Assay. It is filed as biochemical.
Assay [3] relates to Phosphorylation of ERK1/2 in AsPC-1 cells. Put plainly: Phospho-ERK1/2 MSD Assay. It is filed as cell-based, human. In a few lines:
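Read-out: MSD electrochemiluminescent detection of phosphorylated ERK1/2 in whole-cell lysates, fitted to a 4-parameter logistic curve for IC50. Prior to lysis, AsPC-1 cells (25,000 per well) received a 2 h compound dose-response at 37 °C.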

In another assay the test system is AsPC-1 cells. Put plainly: AsPC-1 CTG Assay (CellTiter-Glo cell viability). It is filed as cell-based, human. The following applies: first value of the cell, read-out: G12D/C/V Cell Proliferation CTG (72 h) AsPC-1. The procedure: AsPC-1 and SW620 CTG Assay Protocols
AsPC-1 (human pancreatic adenocarcinoma; ATCC CRL-1682) or SW620 (human colon adenocarcinoma; ATCC CCL-227) cells were cultured in RPMI 1640 medium containing 10% fetal bovine serum and 1× penicillin/streptomycin/L-glutamine. Cells were seeded in 384-well plates at a density of 3.33E+04 cells/mL and incubated at 37° C., 5% CO2, overnight. Serially-diluted compound or DMSO was added to the cells, and plates were incubated at 37° C., 5% CO2 for 72 h. Cell viability was measured using a CellTiter-Glo® Luminescent Cell Viability Assay kit (Promega) according to the manufacturer's protocol. The luminescence signal of treated samples was normalized to DMSO control, and data were analyzed using a 4-parameter logistic model to calculate IC50 values.
Background: Cellular ATP, detected with luciferase, serves as a proxy for viable cell number.

The mark [4] stands for this setting: read-out: KRAS G12D Binding IC50.
The mark [5] stands for this setting: read-out: KRAS G12D Coupled Exchange IC50.
Setting [6] is: Homo sapiens, ASPC1, 2 h, read-out: 2 h p-ERK (AsPC-1 cells), IC50.
Setting [7] is: Homo sapiens, ASPC1, 72 h, AsPC-1, 72 h.
The mark [8] stands for this setting: 2 h, read-out: 2 h p-ERK (AsPC-1 cells), IC50.
Where [9] appears, read: TR-FRET, read-out: KRAS G12D Binding.
Where [10] appears, read: 2 hours compound pre-incubation, read-out: KRAS G12D Coupled Exchange.
The mark [11] stands for this setting: Homo sapiens, ASPC1, 2 h, read-out: 2 h p-ERK (AsPC-1 cells).
Where [12] appears, read: Homo sapiens, ASPC1, 72 h, AsPC-1 cells (G12D), 72 h.

Structures are written as SMILES. pIC50: −log10 of the molar value. Where two headings read alike, the source gives them in different places.

One may read the IC50 as the concentration that inhibits the measured activity by half.

Chain of GDP-bound KRAS protein (aa 1-169), containing both G12D and C118A amino acid substitutions (P01116 other isoform, or with tags, fused parts or gaps G12D/C118A): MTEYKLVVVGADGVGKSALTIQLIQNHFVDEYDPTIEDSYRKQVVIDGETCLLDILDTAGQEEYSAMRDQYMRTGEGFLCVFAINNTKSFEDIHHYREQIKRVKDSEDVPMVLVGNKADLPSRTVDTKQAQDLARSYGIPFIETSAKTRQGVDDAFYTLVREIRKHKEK
Chain of His-tagged KRAS G12D protein (P01116 other isoform, or with tags, fused parts or gaps G12D): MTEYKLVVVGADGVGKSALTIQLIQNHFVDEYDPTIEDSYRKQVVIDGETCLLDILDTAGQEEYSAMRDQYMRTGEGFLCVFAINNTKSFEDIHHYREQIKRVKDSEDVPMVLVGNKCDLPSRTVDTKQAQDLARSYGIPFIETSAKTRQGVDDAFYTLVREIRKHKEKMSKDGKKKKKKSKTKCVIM

As for `O=C1N[C@@H]2CC[C@H](O)CN(C2)c2nc(OC[C@@]34CCCN3C[C@H](F)C4)nc3c(F)c(ncc23)-c2c(c(Cl)cc3[nH]ncc23)CCCO1` (racemic) [Example 282, (26R,29S)-18-chloro-32-fluoro-4-(((2R,7aS)-2-fluorotetrahydro-1H-pyrrolo[1,2-a]pyrrol-7a(5H)-yl)methoxy)-29-hydroxy-23-oxa-1,3,5,9,14,15,25-heptaazahexacyclo[24.4.1.1~6,10~.0~2,7~.0~11,19~.0~12,16~]dotriaconta-2,4,6(32),7,9,11,13,16,18-nonaen-24-one], the values for the pIC50 (in assay [1] (setting [4]); in assay [3] (setting [6]); in the assay with AsPC-1 cells (setting [7])) were 8.15, 6.88 and 5.92, respectively. For the same compound, in assay [2] (setting [5]), the IC50 came out at 0.003 µM.
As for `Cc1cc2[nH]ncc2c2c1/C=C\COC(=O)O[C@@H]1CCCN(C1)c1nc(OC[C@@]34CCCN3C[C@H](F)C4)nc3c(F)c-2ncc13` (single isomer, unassigned) [Example 123], the pIC50 in assay [1] (setting [4]) is 8.10; in assay [2] (setting [5]) it was 8.40; in assay [3] (setting [6]) it was 6.98; in the assay with AsPC-1 cells (setting [7]) it was 6.19.
Consider `Fc1c2ncc3c(nc(OC[C@@]45CCCN4C[C@H](F)C5)nc13)N1CCOC[C@H](COCCCCc3c(Cl)cc4[nH]ncc4c3-2)C1` (single isomer, unassigned) [Example 136], for which the pIC50 is 8.15 in assay [1] (setting [4]), 8.52 in assay [2] (setting [5]), 7.11 in assay [3] (setting [6]) and 6.17 in the assay with AsPC-1 cells (setting [7]).
Take `O[C@@H]1C[C@@H]2CN(C1)c1nc(OC[C@@]34CCCN3C[C@H](F)C4)nc3c(F)c(ncc13)-c1c(c(Cl)cc3[nH]ncc13)CCCn1ncc2n1` (single isomer, unassigned) [Example 299]: the pIC50 is 7.52 in assay [1] (setting [4]); 6.33 in assay [3] (setting [8]); 5.30 in the assay with AsPC-1 cells (AsPC-1, 72 h). For the same compound, the IC50 in assay [2] (setting [5]) is 0.021 µM.
On the same counts, the results for `O[C@@H]1C[C@@H]2CN(C1)c1nc(OC[C@@]34CCCN3C[C@H](F)C4)nc3c(F)c(ncc13)-c1c(c(Cl)cc3[nH]ncc13)CCCn1ncc2n1` (single isomer, unassigned) [Example 300] are 8.00, 7.63, 6.55 and 0.005 µM.
On to `CN(C)CC1(COc2nc3c4cnc(c(F)c4n2)-c2c(c(Cl)cc4[nH]ncc24)CCCOC(=O)O[C@]2(C)COCCN3C2)CC1` (single isomer, unassigned) [Example 331], for which the pIC50 in assay [1] (setting [4]) was 8.30; in assay [2] (setting [5]), 8.52; in assay [3] (setting [6]) it was 7.81; with AsPC-1 cells (setting [7]) it was 6.94.
Regarding `Fc1c2ncc3c(nc(OC[C@@]45CCCN4C[C@H](F)C5)nc13)N1CCOC[C@H](Cc3ncc(o3)CCc3c(Cl)cc4[nH]ncc4c3-2)C1` (single isomer, unassigned) [Example 375], the pIC50 in assay [1] (setting [9]) is 7.57; in assay [2] (setting [10]), 7.82; in assay [3] (setting [11]) it was 6.17; in the assay with AsPC-1 cells (setting [12]), 5.51.
The like results for `Fc1c2ncc3c(nc(OC[C@@]45CCCN4C[C@H](F)C5)nc13)N1CCOC[C@@H](Cc3ncc(o3)CCc3c(Cl)cc4[nH]ncc4c3-2)C1` (single isomer, unassigned) [Example 376] were, in that order, 7.80, 7.96, 6.46 and 5.69.
For the compound `CN(C)CC1(COc2nc3c4cnc(c(F)c4n2)-c2c(c(Cl)cc4[nH]ncc24)CCCCOCC2(F)CCCCN3C2)CC1` (stereo in doubt) [Example 400, 1-(1-((((26R)-18-chloro-26,32-difluoro-24-oxa-1,3,5,9,14,15-hexaazahexacyclo[24.4.1.1~6,10~.0~2,7~.0~11,19~.0~12,16~]dotriaconta-2,4,6,8,10(32),11,13,16,18-nonaen-4-yl)oxy)methyl)cyclopropyl)-N,N-dimethylmethanamine], the pIC50 in assay [1] (setting [9]) was 7.82; in assay [2] (setting [10]), 8.10; in assay [3] (setting [11]), 6.43; in the assay on AsPC-1 cells (setting [12]), 6.09.
